These results are taken from patent US20250215030A1, “STAT MODULATORS AND USES THEREOF” (Recludix Pharma, Inc., priority 2022, published 2025).

In assay [1] the target is T1, Recombinant STAT6 protein (STAT6(W123-T658)) (Homo sapiens, UniProt P42226).
T1 construct: STAT6(W123-T658)
T1 sequence (P42226 123-658): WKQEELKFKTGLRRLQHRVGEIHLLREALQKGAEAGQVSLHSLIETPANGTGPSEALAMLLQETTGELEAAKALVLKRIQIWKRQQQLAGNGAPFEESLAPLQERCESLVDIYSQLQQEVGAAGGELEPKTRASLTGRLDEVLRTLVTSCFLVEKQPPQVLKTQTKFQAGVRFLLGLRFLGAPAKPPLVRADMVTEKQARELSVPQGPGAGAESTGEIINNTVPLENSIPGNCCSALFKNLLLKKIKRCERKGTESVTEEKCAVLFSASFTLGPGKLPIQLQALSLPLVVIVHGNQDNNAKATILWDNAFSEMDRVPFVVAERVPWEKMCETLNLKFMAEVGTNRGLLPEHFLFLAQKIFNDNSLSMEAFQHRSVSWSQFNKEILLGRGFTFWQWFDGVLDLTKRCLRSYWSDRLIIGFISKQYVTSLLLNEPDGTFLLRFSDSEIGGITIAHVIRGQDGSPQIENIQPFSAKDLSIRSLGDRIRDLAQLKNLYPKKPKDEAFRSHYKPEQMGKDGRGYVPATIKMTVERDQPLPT
In words: STAT6 Fluorescence Polarization (FP) Assay. The format is binding. The following applies: STAT6(W123-T658) 250 nM, probe 5-FAM-ApYKPFQDLI-NH2 2 nM, 45-minute incubation. The method, then:
STAT6 Fluorescence Polarization (FP) Assay
An FP assay was developed to determine IC50 values for test substances. Recombinant STAT6 protein (STAT6(W123-T658)) at 250 nM was combined with a fluorescently labeled, phosphotyrosine peptide probe (5-FAM-ApYKPFQDLI-NH2) at 2 nM in FP buffer (10 mM HEPES pH 7.4, 50 mM NaCl, 1 mM EDTA, 0.05% Tween 20, 2 mM DTT). 50 μL of STAT6-probe mixture was added to serial diluted compounds in black, 96-well plates (Greiner BioOne 655076) to a final concentration of 1% DMSO. Reaction components were mixed, and FP was measured after 45-minute incubation at room temperature using a Tecan Spark multimode plate reader. FP signal (mP) was plotted against the log concentration of the test substances and IC50 values were calculated by nonlinear regression analysis using GraphPad Prism software. For STAT6 FP assay, A=≤300 nM; B=>300-3000 nM; C=>3-30 μM; and D=>30 μM.
Background: Polarisation of emitted light reports the rotation of a fluorescent probe.

Assay [2] addresses T2, Recombinant STAT3 protein (STAT3(G127-I722)) (Homo sapiens, UniProt P40763).
T2 construct: STAT3(G127-I722)
As to the kind of experiment: STAT3 Fluorescence Polarization (FP) Assay. Format: binding. The following applies: STAT3(G127-I722) 25 nM, probe 5-FAM-GpYLPQTV-NH2 2 nM, 45-minute incubation. On the procedure: STAT3 Fluorescence Polarization (FP) Assay
An FP assay was developed to determine IC50 values for test substances. Recombinant STAT3 protein (STAT3(G127-I722)) at 25 nM was combined with a fluorescently labeled, phosphotyrosine peptide probe (5-FAM-GpYLPQTV-NH2) at 2 nM in FP buffer (10 mM HEPES pH 7.4, 50 mM NaCl, 1 mM EDTA, 0.05% Tween 20, 2 mM DTT). 50 μL of STAT3-probe mixture was added to serial diluted compounds in black, 96-well plates (Greiner BioOne 655076) to a final concentration of 1% DMSO. Reaction components were mixed, and FP was measured after 45-minute incubation at room temperature using a Tecan Spark multimode plate reader. FP signal (mP) was plotted against the log concentration of the test substances and IC50 values were calculated by nonlinear regression analysis using GraphPad Prism software. For STAT3 FP assay, A=≤100 nM; B=>100-1000 nM; C=>1-10 μM; and D=>10 μM.

In general, IC50 refers to the concentration needed to halve the response being measured.

T2 sequence (P40763 127-722, species assumed): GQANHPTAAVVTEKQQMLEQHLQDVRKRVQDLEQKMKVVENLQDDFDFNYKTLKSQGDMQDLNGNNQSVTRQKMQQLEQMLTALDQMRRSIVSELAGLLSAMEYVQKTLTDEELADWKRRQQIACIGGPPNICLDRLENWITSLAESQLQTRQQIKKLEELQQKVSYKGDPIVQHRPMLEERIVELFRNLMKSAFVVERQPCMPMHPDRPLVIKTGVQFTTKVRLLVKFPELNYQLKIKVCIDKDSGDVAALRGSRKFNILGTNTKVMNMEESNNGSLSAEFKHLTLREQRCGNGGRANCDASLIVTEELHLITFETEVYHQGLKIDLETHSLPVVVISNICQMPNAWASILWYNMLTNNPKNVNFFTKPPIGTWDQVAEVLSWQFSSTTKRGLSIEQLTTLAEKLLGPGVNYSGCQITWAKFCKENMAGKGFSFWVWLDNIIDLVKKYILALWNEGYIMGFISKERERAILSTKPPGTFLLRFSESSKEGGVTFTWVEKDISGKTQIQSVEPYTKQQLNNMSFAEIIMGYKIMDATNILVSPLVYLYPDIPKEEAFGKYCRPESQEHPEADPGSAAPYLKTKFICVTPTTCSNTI

As to `N#C[C@@H]1CN(C(=O)[C@@H]2CC[C@@H]3C[C@H]4C[C@H]4C[C@H](NC(=O)c4cc5cc(C(F)(F)P(=O)(O)O)ccc5s4)C(=O)N32)C[C@H]1c1ccccc1` (relative stereo) [Compound 10, ((2-(((3S,6S,7aS,8aR,9aR)-3-((rel-trans)-3-cyano-4-phenylpyrrolidine-1-carbonyl)-5-oxodecahydro-1H-cyclopropa[d]pyrrolo[1,2-a]azocin-6-yl)carbamoyl)benzo[b]thiophen-5-yl)difluoromethyl)phosphonic acid], the IC50 in assay [1] is ≤ 300 nM; in assay [2], 100 to 1000 nM.
The like results for `N#C[C@@H]1CN(C(=O)[C@@H]2CC[C@@H]3C[C@@H]4C[C@@H]4C[C@H](NC(=O)c4cc5cc(C(F)(F)P(=O)(O)O)ccc5s4)C(=O)N32)C[C@H]1c1ccccc1` (relative stereo) [Compound 11, ((2-(((3S,6S,7aR,8aS,9aR)-3-((rel-trans)-3-cyano-4-phenylpyrrolidine-1-carbonyl)-5-oxodecahydro-1H-cyclopropa[d]pyrrolo[1,2-a]azocin-6-yl)carbamoyl)benzo[b]thiophen-5-yl)difluoromethyl)phosphonic acid] were, in that order, ≤ 300 nM and 100 to 1000 nM.
The like results for `N#C[C@H]1CN(C(=O)[C@@H]2CC[C@@H]3C[C@H]4C[C@H]4C[C@H](NC(=O)c4cc5cc(C(F)(F)P(=O)(O)O)ccc5s4)C(=O)N32)C[C@@]12C(=O)Nc1ccccc12` (single isomer, unassigned) [Compound 27] were, in that order, 300 to 3000 nM and 100 to 1000 nM.
For `N#C[C@@H]1CN(C(=O)[C@@H]2CC[C@@H]3C[C@H]4C[C@H]4C[C@H](NC(=O)c4cc5cc(C(F)(F)P(=O)(O)O)ccc5s4)C(=O)N32)C[C@]12C(=O)Nc1ccccc12` (single isomer, unassigned) [Compound 28] the same measures were ≤ 300 nM and < 100 nM.
`N#C[C@@H]1CN(C(=O)[C@@H]2CC[C@@H]3[C@H]4C[C@H]4C[C@H](NC(=O)c4cc5cc(C(F)(F)P(=O)(O)O)ccc5s4)C(=O)N32)C[C@H]1c1ccccc1` (single isomer, unassigned) [Compound 66, ((2-(((3S,6S,7aS,8aS,8bR)-3-((3S,4R or 3R,4S)-3-cyano-4-phenylpyrrolidine-1-carbonyl)-5-oxodecahydrocyclopropa[c]pyrrolo[1,2-a]azepin-6-yl)carbamoyl)benzo[b]thiophen-5-yl)difluoromethyl)phosphonic acid]: the results for the IC50 in assay [1] and in assay [2] were ≤ 300 nM and 1000 to 10000 nM, respectively.
On to `O=C(N[C@H]1C[C@@H]2C[C@@H]2C[C@H]2CC[C@@H](C(=O)N3CC[C@@H](C(=O)N4CCOCC4)C3)N2C1=O)c1cc2cc(C(F)(F)P(=O)(O)O)ccc2s1` (single isomer, unassigned) [Compound 98], for which the concentration for half-maximal inhibition (IC50) in assay [1] was 3000 to 30000 nM; in assay [2], 100 to 1000 nM.
For `O=C(N[C@H]1C[C@@H]2C[C@@H]2C[C@H]2CC[C@@H](C(=O)N3CC[C@H](C(=O)N4CCOCC4)C3)N2C1=O)c1cc2cc(C(F)(F)P(=O)(O)O)ccc2s1` (single isomer, unassigned) [Compound 99] the same measures were 3000 to 30000 nM and 100 to 1000 nM.
Consider `O=C(N[C@H]1C[C@H]2C[C@H]2C[C@H]2CC[C@@H](C(=O)N3CC(c4ccon4)C3)N2C1=O)c1cc2cc([C@@H](F)P(=O)(O)O)ccc2s1` (single isomer, unassigned) [Example 344], for which the half-inhibitory concentration (IC50) was 3000 to 30000 nM in assay [1] and < 100 nM in assay [2].
As for `CCc1ccncc1C1CN(C(=O)[C@@H]2CC[C@@H]3C[C@@H]4C[C@@H]4C[C@H](NC(=O)c4cc5cc([C@H](F)P(=O)(O)O)ccc5s4)C(=O)N32)C1` (single isomer, unassigned) [Example 345], the IC50 was 3000 to 30000 nM in assay [1] and < 100 nM in assay [2].
For `O=C(N[C@H]1C[C@H]2C[C@H]2C[C@H]2CC[C@@H](C(=O)N3CC(c4ccon4)C3)N2C1=O)c1cc2cc([C@H](F)P(=O)(O)O)ccc2s1` (single isomer, unassigned) [Example 346], the IC50 in assay [1] was 3000 to 30000 nM; in assay [2], < 100 nM.
For `COc1ccncc1C1CN(C(=O)[C@@H]2CC[C@@H]3C[C@@H]4C[C@@H]4C[C@H](NC(=O)c4cc5cc([C@H](F)P(=O)(O)O)ccc5s4)C(=O)N32)C1` (single isomer, unassigned) [Example 353] the same measures were 3000 to 30000 nM and < 100 nM.
The like results for `COc1ccncc1C1CN(C(=O)[C@@H]2CC[C@@H]3C[C@@H]4C[C@@H]4C[C@H](NC(=O)c4cc5cc([C@@H](F)P(=O)(O)O)ccc5s4)C(=O)N32)C1` (single isomer, unassigned) [Example 354] were, in that order, > 30000 nM and < 100 nM.
The like results for `N#CC1(c2ccccn2)CN(C(=O)[C@@H]2CC[C@@H]3C[C@@H]4C[C@@H]4C[C@H](NC(=O)c4cc5cc([C@H](F)P(=O)(O)O)ccc5s4)C(=O)N32)C1` (single isomer, unassigned) [Example 355] were, in that order, 300 to 3000 nM and < 100 nM.
Turning to `N#CC1(c2ccccn2)CN(C(=O)[C@@H]2CC[C@@H]3C[C@@H]4C[C@@H]4C[C@H](NC(=O)c4cc5cc([C@@H](F)P(=O)(O)O)ccc5s4)C(=O)N32)C1` (single isomer, unassigned) [Example 356], the IC50 in assay [1] was 3000 to 30000 nM; in assay [2], < 100 nM.
The like results for `CCc1ccncc1C1CN(C(=O)[C@@H]2CC[C@@H]3C[C@@H]4C[C@@H]4C[C@H](NC(=O)c4cc5cc([C@@H](F)P(=O)(O)O)ccc5s4)C(=O)N32)C1` (single isomer, unassigned) [Example 357] were, in that order, 3000 to 30000 nM and < 100 nM.
The like results for `Cc1cccc(C2CN(C(=O)[C@@H]3CC[C@@H]4C[C@@H]5C[C@@H]5C[C@H](NC(=O)c5cc6cc([C@H](F)P(=O)(O)O)ccc6s5)C(=O)N43)C2)n1` (single isomer, unassigned) [Example 370] were, in that order, 3000 to 30000 nM and < 100 nM.
Turning to `Cc1cccc(C2CN(C(=O)[C@@H]3CC[C@@H]4C[C@@H]5C[C@@H]5C[C@H](NC(=O)c5cc6cc([C@@H](F)P(=O)(O)O)ccc6s5)C(=O)N43)C2)n1` (single isomer, unassigned) [Example 371], the IC50 is 3000 to 30000 nM in assay [1] and < 100 nM in assay [2].
`O=C(N[C@H]1C[C@H]2C[C@H]2C[C@H]2CC[C@@H](C(=O)N3CC(c4cnccc4N4CCOCC4)C3)N2C1=O)c1cc2cc([C@@H](F)P(=O)(O)O)ccc2s1` (single isomer, unassigned) [Example 391]: the 50% inhibitory concentration (IC50) is > 30000 nM in assay [1] and < 100 nM in assay [2].
For `CN(C)c1ccncc1C1CN(C(=O)[C@@H]2CC[C@@H]3C[C@@H]4C[C@@H]4C[C@H](NC(=O)c4cc5cc([C@@H](F)P(=O)(O)O)ccc5s4)C(=O)N32)C1` (single isomer, unassigned) [Example 394] the same measures were 3000 to 30000 nM and < 100 nM.
For `O=C(N[C@H]1C[C@@H]2C[C@@H]2CC2CC[C@@H](C(=O)N3CC(c4cncnc4N4CCC4)C3)N2C1=O)c1cc2cc([C@@H](F)P(=O)(O)O)ccc2s1` (single isomer, unassigned) [Example 401] the same measures were 3000 to 30000 nM and < 100 nM.
With `O=C(N[C@H]1C[C@@H]2C[C@@H]2CC2CC[C@@H](C(=O)N3CC(c4cncnc4N4CCC4)C3)N2C1=O)c1cc2cc([C@H](F)P(=O)(O)O)ccc2s1` (single isomer, unassigned) [Example 402], the concentration for half-maximal inhibition (IC50) in assay [1] is 300 to 3000 nM; in assay [2] it was < 100 nM.
